PubChem BioAssay (NCI)
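The compound was tested at five concentrations on cells cultured in 96-well plates, with a 48-hour exposure period. The concentration for 50% growth inhibition is given as GI50. TGI denotes the concentration required for complete inhibition of growth.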

Experiments:
Experiment in all cases: DTP human tumour cell line panel, 48 h
A498 renal = system: A498 renal
CAKI-1 renal = system: CAKI-1 renal
DU-145 prostate = system: DU-145 prostate
K-562 leukemia = system: K-562 leukemia
KM12 colon = system: KM12 colon
RPMI-8226 leukemia = system: RPMI-8226 leukemia
RXF 393 renal = system: RXF 393 renal
SNB-19 CNS = system: SNB-19 CNS

| SMILES | GI50 (A498 renal) | TGI (A498 renal) | GI50 (CAKI-1 renal) | TGI (CAKI-1 renal) | GI50 (DU-145 prostate) | TGI (DU-145 prostate) | GI50 (K-562 leukemia) | TGI (K-562 leukemia) | GI50 (KM12 colon) | TGI (KM12 colon) | GI50 (RPMI-8226 leukemia) | TGI (RPMI-8226 leukemia) | GI50 (RXF 393 renal) | TGI (RXF 393 renal) | GI50 (SNB-19 CNS) | TGI (SNB-19 CNS) |
| --- | --- | --- | --- | --- | --- | --- | --- | --- | --- | --- | --- | --- | --- | --- | --- | --- |
| N#CC(C#N)=C1Nc2ccccc2S1 | 26.6 µM | 55.5 µM | 24.5 µM | 70.9 µM | 49.2 µM | > 100 µM | 38.3 µM | > 100 µM | 34.8 µM | > 100 µM | 33.6 µM | 79.7 µM | 36 µM | > 100 µM | 38.2 µM | > 100 µM |
| COc1ccc(-c2onc(N)c2-c2cc(OC)c3c(c2)OCO3)cc1 | 1.5 µM | 10.9 µM | 3.58 µM | > 100 µM | 3.57 µM | > 59.3 µM | 0.473 µM | > 100 µM | 1.85 µM | > 75.4 µM | 3.51 µM | > 86 µM | 2.71 µM | 19 µM | 8.24 µM | > 100 µM |
| O=C(O)C(=Cc1ccc(-c2ccccc2)cc1)C(=O)O |  | 40 µM |  | 30 µM |  | > 39 µM |  | 36.9 µM |  | 40.9 µM |  | 20.6 µM |  | 14.5 µM |  | 37.9 µM |
| C#CCNC(=O)c1cccc2c1cc(C)n2-c1nc2c(c(NCc3ccccc3)n1)CCCC2 | 0.0218 µM | 0.0591 µM | 0.0289 µM | 0.176 µM | 0.0298 µM | 0.108 µM | 0.0179 µM |  | 0.0231 µM | 0.065 µM | 0.0107 µM | 0.0537 µM | 0.0122 µM | 0.0406 µM | 0.0362 µM | 0.126 µM |
| COC(=O)Nc1nc2ccc(Oc3ccc(NC(=O)Nc4cc(C(F)(F)F)ccc4F)cc3)cc2s1 |  | > 25 µM | > 25 µM | > 25 µM | 10.6 µM | > 25 µM | 0.0202 µM | > 25 µM | 0.0859 µM | > 25 µM | > 25 µM | > 25 µM | > 25 µM | > 25 µM | > 25 µM | > 25 µM |
| COc1ccc2c(c1)CCCN2c1c2ccccc2nc2ccccc12 | 0.269 µM | 0.808 µM | 0.383 µM | > 100 µM | 0.38 µM | > 100 µM | 0.341 µM | > 100 µM | 0.386 µM | 15.6 µM | 0.431 µM | 4.98 µM | 0.27 µM | 0.786 µM | 0.546 µM | > 100 µM |
| O=C1c2cccc([N+](=O)[O-])c2C(=O)N1c1ncn[nH]1 |  | > 100 µM |  | > 100 µM |  | > 100 µM |  | > 100 µM |  | > 100 µM |  | > 100 µM |  | > 100 µM |  | > 100 µM |
| CCCCCCCC(=O)OCC/C=C/C1OC1C1OC(=O)/C=C\C=C\c2nc(oc2C)/C=C(/C)CCC2OC2C1OC(=O)NC(C)=O (stereo unspecified) | 0.00368 µM | 0.00927 µM | 0.0664 µM | 1.56 µM | 0.0526 µM | 1.37 µM | 0.0304 µM | 1.51 µM | 0.0271 µM | 0.119 µM | 0.0241 µM | 1.04 µM | 0.0184 µM | 0.0562 µM | 0.0605 µM | 1.16 µM |
| COc1cc[nH]c1/C=C1\C(=O)Nc2ccc(F)c(C#CC3(O)CCNCC3)c21 | 0.108 µM | 0.568 µM | 0.0181 µM | 0.472 µM | 0.0429 µM | 2.14 µM | 0.55 µM | 2.51 µM | 0.0025 µM | 0.726 µM | 0.372 µM | 1.23 µM | 0.0204 µM | 0.201 µM | 0.564 µM | 2.15 µM |
| COc1ccc(N2C(=O)/C(=C/c3ccc(N(CCC#N)CCC#N)cc3C)N=C2c2cc([N+](=O)[O-])ccc2Cl)cc1 |  | > 56.2 µM |  | > 36.3 µM |  | 34.8 µM |  | 36.7 µM |  | 45.8 µM |  | > 63.1 µM |  | > 46.4 µM |  | 28.9 µM |
| CC/C=C\C[C@H](F)C/C=C1/C(=O)C=C[C@@H]1C/C=C\CCCC(=O)O | 5.59 µM | 11 µM | 6.52 µM | 22.5 µM | 8.02 µM | 32.4 µM | 2.18 µM | > 32.5 µM | 4.65 µM | 13.3 µM | 1.22 µM | 30.8 µM | 5.19 µM | 10.2 µM | 7.31 µM | 25.4 µM |
| Nc1nc2c(nnn2C2CC(O)C(CO)O2)c(=O)[nH]1 (stereo unspecified) | 8.22 µM | > 48.1 µM | 2.3 µM | > 100 µM | 1.45 µM | > 100 µM | 4.04 µM | > 100 µM | 5.39 µM | > 100 µM | 2.65 µM | > 100 µM | 3.05 µM | 33.8 µM | 34.1 µM | > 100 µM |
